Activity calls are given as the source filed them. No cut-off for these calls is given here.
What was measured:
Cholinesterase [1] = biological target: T1, Cholinesterase (Homo sapiens, UniProt P06276); assay: Inhibition of BChE (unknown origin) by Ellman's method
Acetylcholinesterase [2] = biological target: T2, Acetylcholinesterase (Homo sapiens, UniProt P22303); assay: Inhibition of AChE (unknown origin) by Ellman's method
Acetylcholinesterase [3] = biological target: T2, Acetylcholinesterase; assay: Inhibition of AChE (unknown origin) at 10 uM by Ellman's method
Cholinesterase [4] = biological target: T1, Cholinesterase; assay: Inhibition of BChE (unknown origin) at 10 uM by Ellman's method
BV-2 [5] = assay: Antiinflammatory activity in mouse BV-2 cells assessed as decrease in LPS-induced IL-1beta secretion at 5 uM preincubated for 6 hrs followed by LPS stimulation and measured after 24 hrs by qRT-PCR analysis (reference value: 3.76); type: functional; details: time 30 hrs
[6] = biological target: Prostaglandin G/H synthase 1 (Homo sapiens) (UniProt P23219); assay: Inhibition of COX-1 (unknown origin) by enzyme immunoassay
Prostaglandin G/H synthase 1 (Homo sapiens), sequence (P23219 whole entry): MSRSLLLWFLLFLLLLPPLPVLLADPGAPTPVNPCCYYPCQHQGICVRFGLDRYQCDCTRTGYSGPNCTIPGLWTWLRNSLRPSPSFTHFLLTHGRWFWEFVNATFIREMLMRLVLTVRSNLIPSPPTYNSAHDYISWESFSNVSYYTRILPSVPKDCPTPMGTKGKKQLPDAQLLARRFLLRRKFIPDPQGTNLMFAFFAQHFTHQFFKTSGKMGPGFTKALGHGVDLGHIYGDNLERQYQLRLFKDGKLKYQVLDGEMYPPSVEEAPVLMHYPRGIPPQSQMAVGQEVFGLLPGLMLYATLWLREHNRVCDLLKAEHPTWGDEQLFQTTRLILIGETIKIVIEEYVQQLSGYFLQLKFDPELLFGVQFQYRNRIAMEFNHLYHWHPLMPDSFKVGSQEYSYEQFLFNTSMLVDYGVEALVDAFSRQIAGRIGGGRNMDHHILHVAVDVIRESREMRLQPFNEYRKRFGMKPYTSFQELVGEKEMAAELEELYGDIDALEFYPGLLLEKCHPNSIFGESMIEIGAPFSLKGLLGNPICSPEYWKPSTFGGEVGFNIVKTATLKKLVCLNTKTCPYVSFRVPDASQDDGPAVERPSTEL

PC-3 [7] = assay: Cytotoxicity against […] cells assessed as reduction in cell viability at 0.1 to 10 uM by MTT assay; type: toxicity, cell-based; details: dose 0.1-10 µM
BV-2 [8] = assay: Antiinflammatory activity in mouse BV-2 cells assessed as decrease in LPS-induced TNFalpha secretion at 5 uM preincubated for 6 hrs followed by LPS stimulation and measured after 24 hrs by qRT-PCR analysis (reference value: 3.91); type: functional; details: time 30 hrs
[9] = biological target: T3, Prostaglandin G/H synthase 2 (Homo sapiens) (UniProt P35354); assay: Inhibition of COX-2 (unknown origin) by enzyme immunoassay
T3 sequence (whole entry): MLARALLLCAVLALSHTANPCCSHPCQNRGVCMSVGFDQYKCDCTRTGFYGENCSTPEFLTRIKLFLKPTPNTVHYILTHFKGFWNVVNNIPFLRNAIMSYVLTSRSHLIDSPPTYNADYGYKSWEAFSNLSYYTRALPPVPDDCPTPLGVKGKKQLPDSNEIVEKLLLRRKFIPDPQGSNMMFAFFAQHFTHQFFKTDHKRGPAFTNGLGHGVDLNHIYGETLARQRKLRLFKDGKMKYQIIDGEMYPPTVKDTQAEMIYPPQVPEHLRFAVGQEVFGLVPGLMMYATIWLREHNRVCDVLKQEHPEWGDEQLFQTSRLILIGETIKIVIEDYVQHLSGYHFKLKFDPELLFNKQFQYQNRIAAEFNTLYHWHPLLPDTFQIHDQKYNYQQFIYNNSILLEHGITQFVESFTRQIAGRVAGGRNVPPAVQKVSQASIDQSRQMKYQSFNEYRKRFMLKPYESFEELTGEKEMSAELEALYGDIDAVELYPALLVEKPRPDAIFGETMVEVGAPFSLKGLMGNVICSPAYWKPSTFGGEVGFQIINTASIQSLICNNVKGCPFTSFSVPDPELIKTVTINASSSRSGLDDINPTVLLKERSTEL

BV-2 [10] = assay: Antiinflammatory activity in mouse BV-2 cells assessed as decrease in LPS-induced TNFalpha secretion at 10 uM preincubated for 6 hrs followed by LPS stimulation and measured after 24 hrs by qRT-PCR analysis (reference value: 3.91); type: functional; details: time 30 hrs
PC-3 [11] = assay: Neuroprotective activity against Abeta42-induced cell death in […] cells by MTT assay; type: functional, cell-based; details: dose 0.1-10 µM
BV-2 [12] = assay: Antiinflammatory activity in mouse BV-2 cells assessed as decrease in LPS-induced IL-1beta secretion at 10 uM preincubated for 6 hrs followed by LPS stimulation and measured after 24 hrs by qRT-PCR analysis (reference value: 3.76); type: functional; details: time 30 hrs
Cholinesterase [13] = biological target: T1, Cholinesterase; assay: Potency index, ratio of donepezil IC50 to test compound IC50 for BChE (unknown origin)
[14] = Stability of compound in PBS at pH 7.4 measured after 48 hrs by HPLC analysis; type: physicochemical; details: buffer, pH 7.4, 48 h

T1 sequence (P06276 whole entry): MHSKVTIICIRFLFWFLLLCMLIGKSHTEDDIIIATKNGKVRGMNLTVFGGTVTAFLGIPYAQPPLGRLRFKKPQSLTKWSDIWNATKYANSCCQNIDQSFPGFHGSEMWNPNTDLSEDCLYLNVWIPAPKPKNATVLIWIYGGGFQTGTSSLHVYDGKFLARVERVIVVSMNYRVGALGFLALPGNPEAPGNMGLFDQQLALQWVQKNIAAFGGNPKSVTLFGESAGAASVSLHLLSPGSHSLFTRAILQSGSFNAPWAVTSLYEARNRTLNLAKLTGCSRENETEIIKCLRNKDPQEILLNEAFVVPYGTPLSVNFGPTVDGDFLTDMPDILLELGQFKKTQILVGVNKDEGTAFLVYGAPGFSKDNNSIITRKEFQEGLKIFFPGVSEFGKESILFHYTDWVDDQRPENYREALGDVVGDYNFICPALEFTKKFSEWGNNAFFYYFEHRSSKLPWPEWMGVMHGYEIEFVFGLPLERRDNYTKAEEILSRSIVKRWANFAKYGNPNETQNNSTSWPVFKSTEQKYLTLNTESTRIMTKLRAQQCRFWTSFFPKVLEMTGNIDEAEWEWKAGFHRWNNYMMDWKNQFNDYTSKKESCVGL
T2 sequence (P22303 whole entry): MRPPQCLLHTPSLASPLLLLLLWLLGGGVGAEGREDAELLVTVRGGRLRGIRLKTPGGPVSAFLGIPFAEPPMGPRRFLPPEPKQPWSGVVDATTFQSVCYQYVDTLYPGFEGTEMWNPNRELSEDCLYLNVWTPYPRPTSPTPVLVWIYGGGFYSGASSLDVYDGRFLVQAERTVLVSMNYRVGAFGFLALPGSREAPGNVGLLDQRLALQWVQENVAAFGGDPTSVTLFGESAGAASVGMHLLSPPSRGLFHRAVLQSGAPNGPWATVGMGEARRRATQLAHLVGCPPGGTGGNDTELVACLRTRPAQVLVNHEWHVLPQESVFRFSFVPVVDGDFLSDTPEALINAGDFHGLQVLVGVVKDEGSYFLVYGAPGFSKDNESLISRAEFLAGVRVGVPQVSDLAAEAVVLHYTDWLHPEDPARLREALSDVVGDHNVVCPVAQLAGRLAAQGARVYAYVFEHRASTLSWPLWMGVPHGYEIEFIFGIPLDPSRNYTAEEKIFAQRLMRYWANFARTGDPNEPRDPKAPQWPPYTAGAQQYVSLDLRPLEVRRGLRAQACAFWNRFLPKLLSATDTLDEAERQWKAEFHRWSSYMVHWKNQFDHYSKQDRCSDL

Work on `COc1cc2c(cc1OC)/C(=N\NC(=O)CCNC(=O)C(C)c1ccc(CC(C)C)cc1)C(CC1CCN(Cc3ccccc3)CC1)C2` (centres undefined) yielded an IC50 (Cholinesterase [1]) of 11.6 µM and an IC50 (Acetylcholinesterase [2]) of 4.85 µM.
With `COc1cc2c(cc1OC)/C(=N\NC(=O)C(NC(=O)C(C)c1ccc(CC(C)C)cc1)C(C)C)C(CC1CCN(Cc3ccccc3)CC1)C2` (centres undefined) the IC50 (Cholinesterase [1]) was 3.23 µM and the IC50 (Acetylcholinesterase [2]) was 0.4 µM.
For `COc1ccc2c(c1)c(CC(=O)O)c(C)n2C(=O)c1ccc(Cl)cc1`, the inhibition (Acetylcholinesterase [3]) was “inactive” and the inhibition (Cholinesterase [4]) was “inactive”.
With `COc1cc2c(cc1OC)/C(=N\N)C(CC1CCN(Cc3ccccc3)CC1)C2` (centres undefined) the IC50 (Cholinesterase [1]) was 2.54 µM and the IC50 (Acetylcholinesterase [2]) was 0.19 µM.
With `COc1cc2c(cc1OC)/C(=N\NC(=O)C(C)c1ccc(CC(C)C)cc1)C(CC1CCN(Cc3ccccc3)CC1)C2` (centres undefined) the Activity (BV-2 [5]) was 1.19, the inhibition [6] was “Dose-Dependent Effect” and the Activity (PC-3 [7]) was “Non-Toxic”. The Activity (BV-2 [8]) was 1.51, the inhibition [9] was “Dose-Dependent Effect” and the Activity (BV-2 [10]) was 1.12. For the same compound, the IC50 (Cholinesterase [1]) was 0.8 µM, the Activity (PC-3 [11]) was “Dose-Dependent Effect” and the Activity (BV-2 [12]) was 0.78. The Ratio IC50 (Cholinesterase [13]) was 5, the Stability [14] was “Stable” and the IC50 (Acetylcholinesterase [2]) was 0.015 µM.
With `COc1cc2c(cc1OC)/C(=N\NC(=O)C(CC(C)C)NC(=O)C(C)c1ccc(CC(C)C)cc1)C(CC1CCN(Cc3ccccc3)CC1)C2` (centres undefined) the IC50 (Cholinesterase [1]) was 20.2 µM and the IC50 (Acetylcholinesterase [2]) was 0.35 µM.
`COc1cc2c(cc1OC)/C(=N\NC(=O)CNC(=O)C(C)c1ccc(CC(C)C)cc1)C(CC1CCN(Cc3ccccc3)CC1)C2` (centres undefined) gave an IC50 (Cholinesterase [1]) of 1.64 µM and an IC50 (Acetylcholinesterase [2]) of 1.19 µM.
For `CC(=O)Oc1ccccc1C(=O)O`, the inhibition (Acetylcholinesterase [3]) was “inactive” and the inhibition (Cholinesterase [4]) was “inactive”.
Compound `COc1ccc2c(c1)c(CC(=O)N/N=C1\c3cc(OC)c(OC)cc3CC1CC1CCN(Cc3ccccc3)CC1)c(C)n2C(=O)c1ccc(Cl)cc1` (centres undefined) has an IC50 (Cholinesterase [1]) of 8.53 µM and an IC50 (Acetylcholinesterase [2]) of 0.51 µM.
In the case of `CC(C)Cc1ccc(C(C)C(=O)O)cc1` (centres undefined), the inhibition (Acetylcholinesterase [3]) is reported as “inactive” and the inhibition (Cholinesterase [4]) is reported as “inactive”.
With `COc1cc2c(cc1OC)/C(=N\NC(=O)c1ccccc1OC(C)=O)C(CC1CCN(Cc3ccccc3)CC1)C2` (centres undefined) the IC50 (Cholinesterase [1]) was 0.8 µM and the IC50 (Acetylcholinesterase [2]) was 0.046 µM.
Work on `COc1ccc2cc([C@H](C)C(=O)N/N=C3\c4cc(OC)c(OC)cc4CC3CC3CCN(Cc4ccccc4)CC3)ccc2c1` (some centres undefined) yielded an IC50 (Cholinesterase [1]) of 0.88 µM and an IC50 (Acetylcholinesterase [2]) of 0.15 µM.

Source: ChEMBL document CHEMBL5223116, “Combination of NSAIDs with donepezil as multi-target directed ligands for the treatment of Alzheimer's disease” (Bioorg Med Chem Lett, 2022)
